This note sets out measurements from the supplement of paper PMC10307832.

Holding throughout (test): relative viability (nuclei count vs DMSO), 5 days (fraction); higher = more cells survive
Compound in the experiment “Selisistat + OSI-027”: C1CC(C2=C(C1)C3=C(N2)C=CC(=C3)Cl)C(=O)N [Selisistat] + COc1cccc2cc(-c3nc([C@H]4CC[C@H](C(=O)O)CC4)n4ncnc(N)c34)[nH]c12 [OSI-027] (partner 0.5 µM)
A digest of the protocol: (§1)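 A single step with final 0.05% Triton X-100, 1% formaldehyde and 1 ug/ml Hoechst fixed the cells and stained nuclei 5 days after treatment. Lung cancer cell lines in 1536-well plates had been treated by pin tool the day after seeding with one drug alone or a fixed anchor-drug dose plus five library-drug doses (not always all listed) in √10 steps, and nuclei were counted on 4× images. Relative viability is the ratio of nuclei in treated wells to nuclei in vehicle wells, taken as the median of duplicate plates.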

Compound in the experiment “Selisistat + Tozasertib”: C1CC(C2=C(C1)C3=C(N2)C=CC(=C3)Cl)C(=O)N [Selisistat] + Cc1cc(Nc2cc(N3CCN(C)CC3)nc(Sc3ccc(NC(=O)C4CC4)cc3)n2)n[nH]1 [Tozasertib] (partner 0.1 µM)
The gist of the method:
as §1

Compound in the experiment “Selisistat + Linsitinib”: C1CC(C2=C(C1)C3=C(N2)C=CC(=C3)Cl)C(=O)N [Selisistat] + C[C@]1(O)C[C@@H](c2nc(-c3ccc4ccc(-c5ccccc5)nc4c3)c3c(N)nccn32)C1 [Linsitinib] (partner 1 µM)
The gist of the method: as §1

Compound in the experiment “Selisistat + Pictilisib”: C1CC(C2=C(C1)C3=C(N2)C=CC(=C3)Cl)C(=O)N [Selisistat] + CS(=O)(=O)N1CCN(Cc2cc3nc(-c4cccc5[nH]ncc45)nc(N4CCOCC4)c3s2)CC1 [Pictilisib] (partner 1 µM)
The gist of the method: as §1

As to PC-3 [JPC-3], the relative viability with Selisistat + OSI-027 (first compound 0.4 µM) turned out to be 0.931; with Selisistat + OSI-027 (first compound 1.265 µM) it was 0.776; with Selisistat + OSI-027 (first compound 4 µM) it was 0.739; in the experiment with Selisistat + OSI-027 (first compound 12.65 µM) it was 0.662; with Selisistat + OSI-027 (first compound 40 µM) it was 0.731; in the experiment with Selisistat + Tozasertib (first compound 0.4 µM) it was 0.917. In addition, the relative viability with Selisistat + Tozasertib (first compound 1.265 µM) worked out at 0.853; with Selisistat + Tozasertib (first compound 4 µM), 0.82; in the experiment with Selisistat + Tozasertib (first compound 12.65 µM), 0.857; with Selisistat + Tozasertib (first compound 40 µM), 0.915; with Selisistat + Linsitinib (first compound 0.4 µM) it was 1.01; with Selisistat + Linsitinib (first compound 1.265 µM), 0.968. The relative viability with Selisistat + Linsitinib (first compound 4 µM) came to 0.954; with Selisistat + Linsitinib (first compound 12.65 µM) it was 1; in the experiment with Selisistat + Linsitinib (first compound 40 µM), 0.987; with Selisistat + Pictilisib (first compound 0.4 µM), 0.753; with Selisistat + Pictilisib (first compound 1.265 µM), 0.749; with Selisistat + Pictilisib (first compound 4 µM) it was 0.449. Further, the relative viability with Selisistat + Pictilisib (first compound 12.65 µM) worked out at 0.631; with Selisistat + Pictilisib (first compound 40 µM), 0.696.

For PC-14, the relative viability with Selisistat + OSI-027 (first compound 0.4 µM) is 0.973; with Selisistat + OSI-027 (first compound 1.265 µM) it was 0.783; in the experiment with Selisistat + OSI-027 (first compound 4 µM), 0.755; with Selisistat + OSI-027 (first compound 12.65 µM), 0.819; in the experiment with Selisistat + OSI-027 (first compound 40 µM) it was 0.931; with Selisistat + Tozasertib (first compound 0.4 µM) it was 0.649. Moreover, the relative viability was found to be 0.563 with Selisistat + Tozasertib (first compound 1.265 µM); 0.522 with Selisistat + Tozasertib (first compound 4 µM); 0.581 with Selisistat + Tozasertib (first compound 12.65 µM); 0.656 in the experiment with Selisistat + Tozasertib (first compound 40 µM); 0.951 with Selisistat + Linsitinib (first compound 0.4 µM); 1.05 with Selisistat + Linsitinib (first compound 1.265 µM). Also, the relative viability in the experiment with Selisistat + Linsitinib (first compound 4 µM) turned out to be 0.963; with Selisistat + Linsitinib (first compound 12.65 µM), 0.946; with Selisistat + Linsitinib (first compound 40 µM) it was 0.951; with Selisistat + Pictilisib (first compound 0.4 µM), 0.699; with Selisistat + Pictilisib (first compound 1.265 µM), 0.66; with Selisistat + Pictilisib (first compound 4 µM), 0.729. The relative viability in the experiment with Selisistat + Pictilisib (first compound 12.65 µM) turned out to be 0.664; in the experiment with Selisistat + Pictilisib (first compound 40 µM), 0.824.

RERF-LC-KJ: the relative viability in the experiment with Selisistat + OSI-027 (first compound 0.4 µM) came to 0.742; in the experiment with Selisistat + OSI-027 (first compound 1.265 µM) it was 0.525; in the experiment with Selisistat + OSI-027 (first compound 4 µM), 0.51; in the experiment with Selisistat + OSI-027 (first compound 12.65 µM) it was 0.532; with Selisistat + OSI-027 (first compound 40 µM), 0.533; with Selisistat + Tozasertib (first compound 0.4 µM) it was 0.662. In addition, the relative viability is 0.46 with Selisistat + Tozasertib (first compound 1.265 µM); 0.519 with Selisistat + Tozasertib (first compound 4 µM); 0.403 with Selisistat + Tozasertib (first compound 12.65 µM); 0.371 with Selisistat + Tozasertib (first compound 40 µM); 0.969 in the experiment with Selisistat + Linsitinib (first compound 0.4 µM); 0.878 with Selisistat + Linsitinib (first compound 1.265 µM). The relative viability with Selisistat + Linsitinib (first compound 4 µM) came to 0.937; in the experiment with Selisistat + Linsitinib (first compound 12.65 µM) it was 0.88; in the experiment with Selisistat + Linsitinib (first compound 40 µM), 0.775; with Selisistat + Pictilisib (first compound 0.4 µM), 0.6; in the experiment with Selisistat + Pictilisib (first compound 1.265 µM), 0.436; with Selisistat + Pictilisib (first compound 4 µM), 0.432. For the same cell line, the relative viability with Selisistat + Pictilisib (first compound 12.65 µM) is 0.471; with Selisistat + Pictilisib (first compound 40 µM), 0.48.

As to SK-LU-1, the relative viability was 0.431 with Selisistat + OSI-027 (first compound 0.4 µM); 0.366 with Selisistat + OSI-027 (first compound 1.265 µM); 0.334 with Selisistat + OSI-027 (first compound 4 µM); 0.359 in the experiment with Selisistat + OSI-027 (first compound 12.65 µM); 0.416 with Selisistat + OSI-027 (first compound 40 µM); 0.365 in the experiment with Selisistat + Tozasertib (first compound 0.4 µM). Further, the relative viability with Selisistat + Tozasertib (first compound 1.265 µM) was 0.329; with Selisistat + Tozasertib (first compound 4 µM) it was 0.302; in the experiment with Selisistat + Tozasertib (first compound 12.65 µM), 0.32; with Selisistat + Tozasertib (first compound 40 µM), 0.314; in the experiment with Selisistat + Linsitinib (first compound 0.4 µM) it was 1.18; in the experiment with Selisistat + Linsitinib (first compound 1.265 µM) it was 1.28. The relative viability in the experiment with Selisistat + Linsitinib (first compound 4 µM) is 1.35; in the experiment with Selisistat + Linsitinib (first compound 12.65 µM), 1.1; in the experiment with Selisistat + Linsitinib (first compound 40 µM), 1.04; in the experiment with Selisistat + Pictilisib (first compound 0.4 µM), 0.65; with Selisistat + Pictilisib (first compound 1.265 µM), 0.637; in the experiment with Selisistat + Pictilisib (first compound 4 µM) it was 0.429. For the same cell line, the relative viability with Selisistat + Pictilisib (first compound 12.65 µM) came out at 0.695; with Selisistat + Pictilisib (first compound 40 µM), 0.635.

As to SK-MES-1, the relative viability in the experiment with Selisistat + OSI-027 (first compound 0.4 µM) came out at 0.638; in the experiment with Selisistat + OSI-027 (first compound 1.265 µM) it was 0.668; with Selisistat + OSI-027 (first compound 4 µM), 0.657; with Selisistat + OSI-027 (first compound 12.65 µM), 0.437; with Selisistat + OSI-027 (first compound 40 µM), 0.646; in the experiment with Selisistat + Tozasertib (first compound 0.4 µM), 0.977. The relative viability with Selisistat + Tozasertib (first compound 1.265 µM) came to 0.869; with Selisistat + Tozasertib (first compound 4 µM) it was 0.954; with Selisistat + Tozasertib (first compound 12.65 µM) it was 0.829; in the experiment with Selisistat + Tozasertib (first compound 40 µM), 0.948; with Selisistat + Linsitinib (first compound 0.4 µM), 1.11; with Selisistat + Linsitinib (first compound 1.265 µM) it was 1.04. Further, the relative viability is 0.955 with Selisistat + Linsitinib (first compound 4 µM); 1.05 in the experiment with Selisistat + Linsitinib (first compound 12.65 µM); 1.01 in the experiment with Selisistat + Linsitinib (first compound 40 µM); 0.37 in the experiment with Selisistat + Pictilisib (first compound 0.4 µM); 0.309 with Selisistat + Pictilisib (first compound 1.265 µM); 0.315 with Selisistat + Pictilisib (first compound 4 µM). For the same cell line, the relative viability is 0.329 in the experiment with Selisistat + Pictilisib (first compound 12.65 µM) and 0.366 with Selisistat + Pictilisib (first compound 40 µM).

Take SW 1573: the relative viability in the experiment with Selisistat + OSI-027 (first compound 0.4 µM) came to 0.704; with Selisistat + OSI-027 (first compound 1.265 µM), 0.616; in the experiment with Selisistat + OSI-027 (first compound 4 µM), 0.664; with Selisistat + OSI-027 (first compound 12.65 µM) it was 0.772; with Selisistat + OSI-027 (first compound 40 µM) it was 0.545; with Selisistat + Tozasertib (first compound 0.4 µM), 0.206. Further, the relative viability with Selisistat + Tozasertib (first compound 1.265 µM) was found to be 0.175; in the experiment with Selisistat + Tozasertib (first compound 4 µM), 0.175; with Selisistat + Tozasertib (first compound 12.65 µM) it was 0.206; with Selisistat + Tozasertib (first compound 40 µM), 0.184; with Selisistat + Linsitinib (first compound 0.4 µM) it was 0.859; with Selisistat + Linsitinib (first compound 1.265 µM), 0.823. Besides, the relative viability with Selisistat + Linsitinib (first compound 4 µM) amounted to 0.747; in the experiment with Selisistat + Linsitinib (first compound 12.65 µM), 0.904; with Selisistat + Linsitinib (first compound 40 µM), 0.84; in the experiment with Selisistat + Pictilisib (first compound 0.4 µM), 0.557; in the experiment with Selisistat + Pictilisib (first compound 1.265 µM), 0.594; with Selisistat + Pictilisib (first compound 4 µM) it was 0.426. The results for the relative viability with Selisistat + Pictilisib (first compound 12.65 µM) and in the experiment with Selisistat + Pictilisib (first compound 40 µM) were 0.419 and 0.513, respectively.
